Usually Kd stands for the equilibrium constant for the complex coming apart.

Experiment [1] addresses T1, SARS-CoV-2 nsp1_10-126 (Severe acute respiratory syndrome coronavirus 2, UniProt P0DTD1). Briefly: Thermal shift assay (TSA) by nanoDSF. The conditions noted are these: 4 mM fragment; for TSA effect on unfolding of the protein, in words / TSA Ti ± SD: 2.0% DMSO; for TSA |ΔTi|-3SD: > 0 regarded as statistically significant; for TSA ΔTi: Ti (protein-fragment) − Ti (protein-DMSO), control Ti 54.05 °C in 2.0% DMSO; for TSA Ti ± SD: nanoDSF, 1.25 mg/mL protein, n = 3, APUC = atypical protein unfolding curve. Type of experiment: binding. An excerpt: For TSA, nsp1 in the presence of an equal concentration of DMSO was used as a control to offset the influence of DMSO on the protein. The averaged change of inflection temperature (△Ti) of the protein in the presence of fragments higher than three-fold of standard deviation (|△Ti|-3*SD > 0) was regarded as statistically significant. […] In this regard, TSA may not be suitable yet for the validation of hits against SARS-CoV-2 nsp1_10-126, as we have recently also observed for another SARS-CoV-2 protein, nsp10 [41]. With respect to physicochemical properties, calculated values for fragments are well within the expected range, indicating good starting points for structure-based drug design.
The protein concentration used in this assay was determined by analysing the unfolding curves of SARS-CoV-2 nsp1_10-126 at different concentrations in the presence of 2% DMSO. Fragments dissolved in DMSO (200 mM stocks) were diluted in buffer E supplied with 0.05% Pluronic® F-127 and mixed with nsp1_10-126. The final concentration of fragments was 4 mM containing 2.0% DMSO, while the final protein concentration was 1.25 mg/mL. After centrifugation for 5 min at 6000 rpm, the samples were loaded into Tycho NT.6 capillaries (TY-C001, NanoTemper, München, Germany) with 1.25 mg/mL SARS-CoV-2 nsp1_10-126 in the presence of 2% DMSO as control and measured by the Tycho NT.6 instrument (NanoTemper, München, Germany) in triplicate. The resulting Ti values are presented as means ± SD (n = 3) and the △Ti values for each sample were calculated with the following equation. △Ti = Ti (protein-fragment) − Ti (protein-DMSO)
A general note: Differential scanning fluorimetry follows unfolding on heating by fluorescence.

The target of a further experiment is MERS nsp1 (Middle East respiratory syndrome-related coronavirus, UniProt K9N7C7). Briefly: biochemical. Type of experiment: binding.
MERS nsp1, sequence (K9N7C7 2-193 limits assumed): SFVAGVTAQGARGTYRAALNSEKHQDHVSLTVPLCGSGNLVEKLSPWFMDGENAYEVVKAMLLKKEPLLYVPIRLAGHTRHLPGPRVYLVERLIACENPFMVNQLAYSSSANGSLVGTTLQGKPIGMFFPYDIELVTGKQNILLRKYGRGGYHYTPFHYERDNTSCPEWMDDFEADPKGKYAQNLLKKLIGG
Experiment [2] concerns the target T1, SARS-CoV-2 nsp1_10-126. Description: Microscale thermophoresis (MST) binding affinity. Background: In MST a laser heats a spot of the sample, and binding alters the fluorescence response.
The target in a further experiment is SARS-CoV-1 nsp1 (Severe acute respiratory syndrome coronavirus, UniProt P0C6X7). Description: biochemical. It counts as binding.

Molecules are shown by their SMILES. Like-named read-outs stand apart in the source and are kept apart here.

`OCCNCc1ccccc1` [Fragment 8E6]: on SARS-CoV-2 nsp1_10-126 [1], the “TSA effect on unfolding of the protein, in words” value (from here on “TSA effect on unfolding”) was “Destabilisation effects”; the “TSA |ΔTi|-3SD” value was found to be 0.67 °C; the “TSA ΔTi” value was −1.33 °C; the “TSA Ti ± SD” value was found to be 52.72 ± 0.22 °C. Further, at MERS nsp1, the Kd is greater than 20 mM. The same compound returned a dissociation constant Kd on SARS-CoV-2 nsp1_10-126 [2] of 8.32 ± 3.32 mM. At SARS-CoV-1 nsp1, the equilibrium dissociation constant (Kd) was greater than 20 mM.
As to `C[C@H](N)c1ccc(Cl)cc1` [Fragment 7H2], at SARS-CoV-2 nsp1_10-126 [1], the “TSA effect on unfolding” value is “Destabilisation effects”; the “TSA ΔTi” value was −0.50 °C; the “TSA Ti ± SD” value was 53.55 ± 0.25 °C. Further, on MERS nsp1, the “MERS nsp1 MST, Kd” value was “n.i”. Moreover, the Kd at SARS-CoV-2 nsp1_10-126 [2] is greater than 20 mM. Also, the Kd at SARS-CoV-2 nsp1_10-126 [2] (read-out: SARS-CoV-2 nsp1 MST, Kd) is greater than 20 mM. Moreover, on SARS-CoV-1 nsp1, the “Cross-binding to SARS-CoV-1 nsp1 by MST, in words” value is on record as “no binding” and the “SARS-CoV-1 nsp1 MST, Kd” value is recorded as “n.i”.
Regarding `CNCc1ccc(-c2cccs2)cc1` [Fragment 5E11], the “TSA effect on unfolding” value on SARS-CoV-2 nsp1_10-126 [1] is recorded as “atypical unfolding curves”. Further, the “TSA Ti ± SD” value at SARS-CoV-2 nsp1_10-126 [1] is listed as “APUC”. The figures for the Kd on MERS nsp1, at SARS-CoV-2 nsp1_10-126 [2] and on SARS-CoV-1 nsp1 were greater than 20 mM, 0.48 ± 0.3 mM and 12.8 ± 24.1 mM, respectively.
As to `Nc1nc(-c2ccc(O)cc2)cs1` [Fragment 10B6], on SARS-CoV-2 nsp1_10-126 [1], the “TSA effect on unfolding” value is listed as “Destabilisation effects”; the “TSA |ΔTi|-3SD” value was 2.33 °C; the “TSA ΔTi” value was −2.79 °C; the “TSA Ti ± SD” value was 51.27 ± 0.15 °C. For the same compound, on MERS nsp1, the “Cross-binding to MERS nsp1 by MST, in words” value is listed as “moderate binding affinity” and binding was put at a Kd of 4.92 ± 4.19 mM. The compound further had a Kd on SARS-CoV-2 nsp1_10-126 [2] of 0.56 ± 0.19 mM. For the same compound, the dissociation constant Kd on SARS-CoV-1 nsp1 was greater than 20 mM.
Turning to `CNCc1csc(-c2cccc(Cl)c2)n1` [Fragment 11C6], at SARS-CoV-2 nsp1_10-126 [1], the “TSA effect on unfolding” value is given as “Destabilisation effects”; the “TSA |ΔTi|-3SD” value was 0.13 °C; the “TSA ΔTi” value is −0.27 °C; the “TSA Ti ± SD” value came out at 53.78 ± 0.05 °C. Moreover, at MERS nsp1, the “MERS nsp1 MST, Kd” value is “n.i”. Also, the Kd at SARS-CoV-2 nsp1_10-126 [2] is 1.16 ± 0.22 mM. Besides, at SARS-CoV-1 nsp1, the “Cross-binding to SARS-CoV-1 nsp1 by MST, in words” value is reported as “strong cross-binding effects” and the Kd came to 0.38 ± 0.14 mM.

The record behind these values is PMC9604401 (International Journal of Molecular Sciences, 2022).
